Results published in ChEMBL document CHEMBL4312020, “Design, synthesis and biological evaluation of oseltamivir derivatives containing pyridyl group as potent inhibitors of neuraminidase for influenza A” (Eur J Med Chem, 2020).

Experiments:
[1] = molecular target: Neuraminidase (Influenza A virus (A/Puerto Rico/8/1934(H1N1))) (UniProt P03468); details: Influenza A virus (A/Anhui/1/2005(H5N1)); at 100 µM
[2] = molecular target: Neuraminidase (Influenza A virus (A/Puerto Rico/8/1934(H1N1))) (UniProt P03468); details: Influenza A virus (A/Anhui/1/2005(H5N1)); at 1 µM
[3] = molecular target: Neuraminidase (Influenza A virus (A/Puerto Rico/8/1934(H1N1))) (UniProt P03468); details: Influenza A virus (A/Anhui/1/2005(H5N1)); at 10 µM
[4] = molecular target: Neuraminidase (Influenza A virus (A/Puerto Rico/8/1934(H1N1)), UniProt P03468); assay: Inhibition of Influenza A virus A/WSN/1933(H1N1) Neuraminidase using MU-NANA as substrate preincubated for 30 mins followed by substrate addition and measured after 1 hr by spectrofluorometry relative to control
[5] = Inhibition of Influenza A virus A/Taiwan/3446/2002(H3N2) Neuraminidase using MU-NANA as substrate preincubated for 30 mins followed by substrate addition and measured after 1 hr by spectrofluorometry relative to control
[6] = Stability in human plasma assessed as compound remaining incubated for 120 mins by LC-MS/MS analysis; type: ADME, cell-free; details: read-out: Stability
[7] = Stability in human plasma assessed as compound remaining incubated for 60 mins by LC-MS/MS analysis; type: ADME, cell-free; details: read-out: Stability
[8] = Stability in human plasma assessed as compound remaining incubated for 10 mins by LC-MS/MS analysis; type: ADME, cell-free; details: read-out: Stability
[9] = Stability in human plasma assessed as compound remaining incubated for 30 mins by LC-MS/MS analysis; type: ADME, cell-free; details: read-out: Stability
[10] = Stability in human plasma assessed as compound remaining incubated for 0 mins by LC-MS/MS analysis; type: ADME, cell-free; details: read-out: Stability
[11] = Oral bioavailability in Sprague-Dawley rat at 50 mg/kg measured upto 24 hrs by LC-MS/MS analysis; type: ADME, organism-based; details: in vivo
[12] = AUC in Sprague-Dawley rat at 50 mg/kg, po measured upto 24 hrs by LC-MS/MS analysis; type: ADME, organism-based; parameters: dose 50 mg/kg, time < 24 hr, route oral; details: in vivo
[13] = MRT in Sprague-Dawley rat at 50 mg/kg, po measured upto 24 hrs by LC-MS/MS analysis; type: ADME, organism-based; details: in vivo
[14] = Half life in Sprague-Dawley rat at 50 mg/kg, po measured upto 24 hrs by LC-MS/MS analysis; type: ADME, organism-based; details: in vivo
[15] = Tmax in Sprague-Dawley rat at 50 mg/kg, po measured upto 24 hrs by LC-MS/MS analysis; type: ADME, organism-based; details: in vivo
[16] = Cmax in Sprague-Dawley rat at 50 mg/kg, po measured upto 24 hrs by LC-MS/MS analysis; type: ADME, organism-based; parameters: dose 50 mg/kg, route oral; details: in vivo
[17] = AUC in Sprague-Dawley rat at 10 mg/kg, iv measured upto 24 hrs by LC-MS/MS analysis; type: ADME, organism-based; parameters: dose 10 mg/kg, time < 24 hr, route intravenous; details: in vivo
[18] = Bioavailability in Sprague-Dawley rat at 10 mg/kg, iv measured upto 24 hrs by LC-MS/MS analysis; type: ADME, organism-based; details: in vivo
[19] = MRT in Sprague-Dawley rat at 10 mg/kg, iv measured upto 24 hrs by LC-MS/MS analysis; type: ADME, organism-based; details: in vivo
[20] = Half life in Sprague-Dawley rat at 10 mg/kg, iv measured upto 24 hrs by LC-MS/MS analysis; type: ADME, organism-based; details: in vivo
[21] = molecular target: Neuraminidase (Influenza A virus (A/Puerto Rico/8/1934(H1N1)), UniProt P03468); parameters: species or system Influenza A virus (A/Anhui/1/2005(H5N1))
[22] = in vitro; details: human, liver microsomes
[23] = in vitro; details: human, liver microsomes; remark: listed apart in the source
[24] = in vitro; details: rat, liver microsomes
[25] = in vitro; details: rat, liver microsomes; remark: listed apart in the source
[26] = test system: Influenza A virus; assay: microbe, parasite or virus in culture; details: (A/LiaoNing-ZhenXing/1109/2010(H1N1), MDCK, 72 h
[27] = test system: Influenza A virus; assay: microbe, parasite or virus in culture; details: A/Puerto Rico/8/1934(H1N1), MDCK, 72 h
[28] = in vitro; details: dog, MDCK cells

Sequence of Neuraminidase (Influenza A virus (A/Puerto Rico/8/1934(H1N1))) (P03468 whole entry): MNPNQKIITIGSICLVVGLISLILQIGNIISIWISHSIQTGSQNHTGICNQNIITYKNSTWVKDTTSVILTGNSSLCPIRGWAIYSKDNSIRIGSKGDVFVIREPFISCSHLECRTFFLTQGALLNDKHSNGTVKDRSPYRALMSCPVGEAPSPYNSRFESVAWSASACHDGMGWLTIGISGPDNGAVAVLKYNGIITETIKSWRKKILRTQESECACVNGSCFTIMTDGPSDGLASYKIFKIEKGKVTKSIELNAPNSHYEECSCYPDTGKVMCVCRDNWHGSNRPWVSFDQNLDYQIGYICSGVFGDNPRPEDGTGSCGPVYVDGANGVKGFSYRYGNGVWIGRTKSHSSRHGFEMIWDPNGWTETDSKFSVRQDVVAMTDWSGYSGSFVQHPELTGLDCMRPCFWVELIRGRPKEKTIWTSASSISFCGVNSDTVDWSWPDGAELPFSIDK
Sequence of Neuraminidase (Influenza A virus (A/Puerto Rico/8/1934(H1N1)), UniProt P03468) (P03468 whole entry): as above

SMILES: CCC(CC)O[C@@H]1C=C(C(=O)O)C[C@H](Nc2ncc(Br)cc2NC(=O)C(C)C)[C@H]1NC(C)=O
- inhibition [1]: 79.3%
- inhibition [2]: 19.1%

SMILES: CCC(CC)O[C@@H]1C=C(C(=O)O)C[C@H](Nc2nc(OC)ccc2N)[C@H]1NC(C)=O
- inhibition [1]: 81.4%
- inhibition [3]: 41.3%

SMILES: CCC(CC)O[C@@H]1C=C(C(=O)O)C[C@H](Nc2ccc(N)cn2)[C@H]1NC(C)=O
- inhibition [1]: 67.7%
- inhibition [3]: 30%

SMILES: CCC(CC)O[C@@H]1C=C(C(=O)O)C[C@H](Nc2ccc([N+](=O)[O-])cn2)[C@H]1NC(C)=O
- inhibition [1]: 87.1%
- inhibition [2]: 8.9%

SMILES: CCC(CC)O[C@@H]1C=C(C(=O)O)C[C@H](Nc2ncccc2[N+](=O)[O-])[C@H]1NC(C)=O
- inhibition [1]: 76.1%
- inhibition [2]: 9.1%

SMILES: CCC(CC)O[C@@H]1C=C(C(=O)O)C[C@H](Nc2ccc(NC(C)=O)cn2)[C@H]1NC(C)=O
- inhibition [1]: 38.7%
- inhibition [2]: 9.6%

SMILES: CC(=O)N[C@H]1[C@H]([C@H](O)[C@H](O)CO)OC(C(=O)O)=C[C@@H]1NC(=N)NC(=O)CSc1cccc2ccccc12
- IC50 [4]: 0.0023 µM
- IC50 [5]: 0.0029 µM

SMILES: CCC(CC)O[C@@H]1C=C(C(=O)O)C[C@H](Nc2ncc(Br)cc2[N+](=O)[O-])[C@H]1NC(C)=O
- inhibition [1]: 54.3%

SMILES: CCC(CC)O[C@@H]1C=C(C(=O)O)C[C@H](Nc2ncc(Br)cc2NC(=O)c2ccccc2)[C@H]1NC(C)=O
- inhibition [1]: 36.9%

SMILES: CC(C)[N+](C)(CCOC(=O)C1c2ccccc2Oc2ccccc21)C(C)C [PROPANTHELINE BROMIDE]
- remaining at 2 h [6]: 0.7%
- remaining at 1 h [7]: 10.1%
- remaining at 10 min [8]: 68.2%
- remaining at 0.5 h [9]: 34.8%
- remaining at 0 h [10]: 100%

SMILES: CCC(CC)O[C@@H]1C=C(C(=O)O)C[C@H](Nc2ncccc2N)[C@H]1NC(C)=O
- bioavailability [11]: 1.58%
- AUC at 24 h [12]: 358 ng·h/mL
- MRT [13]: 127 min
- half-life [14]: 94.2 min
- Tmax [15]: 19.8 min
- Cmax [16]: 253 ng/mL
- AUC at 24 h [17]: 4540 ng·h/mL
- F [18]: 100%
- MRT [19]: 11.4 min
- half-life [20]: 30.6 min
- remaining at 2 h [6]: 102%
- remaining at 1 h [7]: 113%
- remaining at 10 min [8]: 95.1%
- remaining at 0.5 h [9]: 103%
- remaining at 0 h [10]: 100%
- IC50 [21]: 0.32 µM
- inhibition [1]: 92.4%
- inhibition [3]: 87.6%
- half-life at 1 h [22]: > 145 min
- remaining at 1 h [23]: 87.5%
- half-life at 1 h [24]: > 145 min
- remaining at 1 h [25]: 85.5%
- EC50 [26]: 14.3 µM
- EC50 [27]: 12.7 µM

SMILES: CCC(CC)O[C@@H]1C=C(C(=O)O)C[C@H](N)[C@H]1NC(C)=O [OSELTAMIVIR CARBOXYLATE]
- CC50 at 72 h [28]: > 1000 µM
- EC50 [26]: 67.5 µM
- EC50 [27]: 2.49 µM

SMILES: O=C(O)Cc1ccccc1Nc1c(Cl)cccc1Cl [DICLOFENAC]
- half-life at 1 h [24]: 17.1 min

SMILES: CCCC(=O)Nc1cccnc1N[C@H]1CC(C(=O)O)=C[C@@H](OC(CC)CC)[C@@H]1NC(C)=O
- inhibition [1]: 22.1%

SMILES: CCC(=O)Nc1ccc(OC)nc1N[C@H]1CC(C(=O)O)=C[C@@H](OC(CC)CC)[C@@H]1NC(C)=O
- inhibition [1]: 10.7%

SMILES: CCC(CC)O[C@@H]1C=C(C(=O)O)C[C@H](Nc2nc(OC)ccc2[N+](=O)[O-])[C@H]1NC(C)=O
- inhibition [1]: 82.9%
- inhibition [2]: 27.9%

SMILES: CCC(CC)O[C@@H]1C=C(C(=O)O)C[C@H](Nc2nc(OC)ccc2NC(=O)c2ccccc2)[C@H]1NC(C)=O
- inhibition [1]: 70.6%

SMILES: CCC(CC)O[C@@H]1C=C(C(=O)O)C[C@H](Nc2nccc(C)c2N)[C@H]1NC(C)=O
- inhibition [1]: 24.2%
- inhibition [3]: 10.7%

SMILES: CCCC(=O)Nc1cc(Br)cnc1N[C@H]1CC(C(=O)O)=C[C@@H](OC(CC)CC)[C@@H]1NC(C)=O
- inhibition [1]: 41.5%
- inhibition [2]: 6.8%

SMILES: CCC(CC)O[C@@H]1C=C(C(=O)O)C[C@H](Nc2ncc(C)cc2N)[C@H]1NC(C)=O
- inhibition [1]: 46.8%
- inhibition [3]: 25.9%

SMILES: CCC(CC)O[C@@H]1C=C(C(=O)O)C[C@H](Nc2ccc(NC(=O)c3ccccc3)cn2)[C@H]1NC(C)=O
- inhibition [1]: 18.6%

SMILES: CCC(CC)O[C@@H]1C=C(C(=O)O)C[C@H](Nc2ncc(Br)cc2N)[C@H]1NC(C)=O
- inhibition [1]: 55.9%
- inhibition [3]: 26.8%

SMILES: CCC(CC)O[C@@H]1C=C(C(=O)O)C[C@H](Nc2ncccc2NC(=O)c2ccccc2)[C@H]1NC(C)=O
- inhibition [1]: 7.6%

SMILES: CCC(CC)O[C@@H]1C=C(C(=O)O)C[C@H](Nc2ncc(Br)cc2NC(C)=O)[C@H]1NC(C)=O
- inhibition [1]: 46.7%

SMILES: CCCC(=O)Nc1ccc(OC)nc1N[C@H]1CC(C(=O)O)=C[C@@H](OC(CC)CC)[C@@H]1NC(C)=O
- inhibition [1]: 76.3%
- inhibition [2]: 16%

SMILES: CCC(CC)O[C@@H]1C=C(C(=O)O)C[C@H](Nc2nc(OC)ccc2NC(C)=O)[C@H]1NC(C)=O
- inhibition [1]: 75.7%
- inhibition [2]: 10.1%
